# Measured values: patent publication US20120015925A1, “NOVEL BENZOTHIAZEPINE AND BENZOTHIEPINE COMPOUNDS” (ASAHI KASEI PHARMA CORPORATION, priority 2004, published 2012)
# pIC50: −log10 of the molar value.
# Molecular target: T1, human IBAT (Homo sapiens, UniProt Q12908)
# T1 sequence (Q12908 1-348): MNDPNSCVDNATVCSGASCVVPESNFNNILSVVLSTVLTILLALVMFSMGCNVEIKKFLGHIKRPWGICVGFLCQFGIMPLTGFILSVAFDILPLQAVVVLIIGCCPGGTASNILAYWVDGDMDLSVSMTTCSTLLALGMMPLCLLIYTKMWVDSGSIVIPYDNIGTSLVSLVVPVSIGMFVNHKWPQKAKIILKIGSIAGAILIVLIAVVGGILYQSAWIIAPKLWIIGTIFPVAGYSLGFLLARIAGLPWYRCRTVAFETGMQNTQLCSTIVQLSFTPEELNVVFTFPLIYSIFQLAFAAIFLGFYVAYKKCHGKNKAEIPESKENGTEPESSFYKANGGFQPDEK
# Experiment: In vitro assay using Cos 7 cells, transiently expressed human IBAT
# Format: cell-based
# Conditions: 37° C., 60 minutes
# Procedure: In the present Test Example, an in vitro assay of compounds using Cos 7 cells as to inhibitory activity on transiently expressed human IBAT or rat IBAT transporter was performed according to the method described in Am. J. Physiol., 274, G157-169.
# That is, […] cells/well of Cos 7 cells were seeded in a 24-well plate, and after one day, the cells were transfected with 0.3 μg/well of cDNA of human IBAT or rat IBAT using FuGENE6 (supplied from Roche). After culturing for one day after the transfection, the cells were washed once with the assay buffer, i.e., Hanks buffer containing 25 mM glucose and 10 mM HEPES (pH 7.4). The assay buffer was then replaced with the assay buffer containing the test compound. [^3H]-Taurocholate at a final concentration of 8 μM was added thereto and incubated at 37° C. for 60 minutes so that [^3H]-taurocholate was taken into Cos 7 cells by the action of human IBAT or rat IBAT. The cells were washed twice with the assay buffer containing 1 mM taurocholate, and subsequently lysed with 0.2 M NaOH to stop the reaction. The cell lysate was added to 4 mL of liquid scintillation cocktail, which was then thoroughly vortexed. Then the radioactivity was measured using the liquid scintillation counter.
pIC50 ([3H]-taurocholate 8 μM uptake),SMILES,pIC50 ([3H]-taurocholate 8 μM)
7.24,CCCCC1(CCCC)CS(=O)(=O)c2ccc(N(C)C)cc2C(c2cccc(NC(=S)Nc3ccc(C[N+](C)(CCC)CCC)cc3)c2)N1 (racemic) [EXAMPLE 3426],
7.26,CCCCC1(CCCC)CS(=O)(=O)c2ccc(N(C)C)cc2C(c2cccc(NC(=S)Nc3ccc(C[N+](C)(C)Cc4cccs4)cc3)c2)N1 (racemic) [EXAMPLE 3449],
7.17,CCCCC1(CCCC)CS(=O)(=O)c2ccc(N(C)C)cc2C(c2cccc(NC(=S)Nc3ccc(C[N+](C)(C)CC(C)O)cc3)c2)N1 (racemic) [EXAMPLE 3454],
6.90,CCCCC1(CCCC)CS(=O)(=O)c2ccc(N(C)C)cc2C(c2cccc(NC(=S)Nc3ccc(C[N+](C)(C)CCN(C)C)cc3)c2)N1 (racemic) [EXAMPLE 3506],
7.15,CCCCC1(CCCC)CS(=O)(=O)c2ccc(N(C)C)cc2C(c2cccc(NC(=S)Nc3ccc(C[N+]4(C)CCCCC4)cc3)c2)N1 (racemic) [EXAMPLE 3587],
7.16,CCCCC1(CCCC)CS(=O)(=O)c2ccc(N(C)C)cc2C(c2cccc(NC(=S)Nc3ccc(C[N+]45CCC(CC4)C(O)C5)cc3)c2)N1 (racemic) [EXAMPLE 3697],
7.15,CCCCC1(CCCC)CS(=O)(=O)c2ccc(N(C)C)cc2C(c2cccc(NC(=S)Nc3ccc(C[n+]4ccccc4)cc3)c2)N1 (racemic) [EXAMPLE 3708],
7.41,CCCCC1(CCCC)CS(=O)(=O)c2ccc(N(C)C)cc2C(c2cccc(NC(=S)Nc3ccc(C[n+]4cccc(CC)c4)cc3)c2)N1 (racemic) [EXAMPLE 3722],
7.14,CCCCC1(CCCC)CS(=O)(=O)c2ccc(N(C)C)cc2C(c2cccc(NC(=S)Nc3ccc(C[n+]4cccc(-c5cccs5)c4)cc3)c2)N1 (racemic) [EXAMPLE 3726],
7.08,CCCCC1(CCCC)CS(=O)(=O)c2ccc(N(C)C)cc2C(c2cccc(NC(=S)Nc3ccc(C[n+]4cc(C)cc(-c5ccccc5)c4)cc3)c2)N1 (racemic) [EXAMPLE 3730],
7.09,CCCCC1(CCCC)CS(=O)(=O)c2ccc(N(C)C)cc2C(c2cccc(NC(=S)Nc3ccc(C[n+]4cccc(C(=O)c5ccccc5)c4)cc3)c2)N1 (racemic) [EXAMPLE 3748],
7.04,CCCCC1(CCCC)CS(=O)(=O)c2ccc(N(C)C)cc2C(c2cccc(NC(=S)Nc3ccc(C[n+]4ccc(NC=O)cc4)cc3)c2)N1 (racemic) [EXAMPLE 3754],
7.10,CCCCC1(CCCC)CS(=O)(=O)c2ccc(N(C)C)cc2C(c2cccc(NC(=S)Nc3ccc(C[n+]4ccc(CCc5ccncc5)cc4)cc3)c2)N1 (racemic) [EXAMPLE 3764],
7.00,CCCCC1(CCCC)CS(=O)(=O)c2ccc(N(C)C)cc2C(c2cccc(NC(=S)Nc3ccc(C[n+]4ccc(N(C)C)cc4)cc3)c2)N1 (racemic) [EXAMPLE 4210],
7.01,CCCCC1(CCCC)CS(=O)(=O)c2ccc(N(C)C)cc2C(c2cccc(NC(=S)Nc3ccc(C[n+]4ccc(C(C)O)cc4)cc3)c2)N1 (racemic) [EXAMPLE 5411],
,CCCCC1(CCCC)CS(=O)(=O)c2ccc(N(C)C)cc2C(c2cccc(NC(=S)Nc3ccc(C[n+]4ccccc4OCC)cc3)c2)N1 (racemic) [EXAMPLE 5415],7.36
7.59,CCCCC1(CCCC)CS(=O)(=O)c2ccc(N(C)C)cc2C(c2cccc(NC(=S)Nc3ccc(C[n+]4cc(O)cc(Cl)c4)cc3)c2)N1 (racemic) [EXAMPLE 5417],
7.00,CCCCC1(CCCC)CS(=O)(=O)c2ccc(N(C)C)cc2C(c2cccc(NC(=S)NCCC[N+]3(Cc4ccccc4)CCCC(CO)C3)c2)N1 (stereo not drawn) [EXAMPLE 592],
7.04,CCCCC1(CCCC)CS(=O)(=O)c2ccc(N(C)C)cc2C(c2cccc(NC(=S)NCCC[N+]3(Cc4ccccc4)CCC(CCO)CC3)c2)N1 (stereo not drawn) [EXAMPLE 593],
7.17,CCCCCC[N+](C)(C)Cc1ccc(NC(=S)Nc2cccc(C3NC(CCCC)(CCCC)CS(=O)(=O)c4ccc(N(C)C)cc43)c2)cc1 (stereo not drawn) [EXAMPLE 3410],

pIC50 ([3H]-taurocholate 8 μM uptake),SMILES,pIC50 ([3H]-taurocholate 8 μM)
7.12,CCCCCCCC[N+](C)(C)Cc1ccc(NC(=S)Nc2cccc(C3NC(CCCC)(CCCC)CS(=O)(=O)c4ccc(N(C)C)cc43)c2)cc1 (stereo not drawn) [EXAMPLE 3412],
7.14,CCCCCCCCC[N+](C)(C)Cc1ccc(NC(=S)Nc2cccc(C3NC(CCCC)(CCCC)CS(=O)(=O)c4ccc(N(C)C)cc43)c2)cc1 (stereo not drawn) [EXAMPLE 3413],
7.06,CCCCCCCCCC[N+](C)(C)Cc1ccc(NC(=S)Nc2cccc(C3NC(CCCC)(CCCC)CS(=O)(=O)c4ccc(N(C)C)cc43)c2)cc1 (stereo not drawn) [EXAMPLE 3414],
7.26,C=CC[N+](C)(C)Cc1ccc(NC(=S)Nc2cccc(C3NC(CCCC)(CCCC)CS(=O)(=O)c4ccc(N(C)C)cc43)c2)cc1 (stereo not drawn) [EXAMPLE 3429],
7.26,C#CC[N+](C)(C)Cc1ccc(NC(=S)Nc2cccc(C3NC(CCCC)(CCCC)CS(=O)(=O)c4ccc(N(C)C)cc43)c2)cc1 (stereo not drawn) [EXAMPLE 3433],
7.15,CCC#CC[N+](C)(C)Cc1ccc(NC(=S)Nc2cccc(C3NC(CCCC)(CCCC)CS(=O)(=O)c4ccc(N(C)C)cc43)c2)cc1 (stereo not drawn) [EXAMPLE 3434],
7.07,CCCCC1(CCCC)CS(=O)(=O)c2ccc(N(C)C)cc2C(c2cccc(NC(=S)Nc3ccc(C[N+](C)(C)C(C)c4ccccc4)cc3)c2)N1 (stereo not drawn) [EXAMPLE 3441],
7.15,CCCCC1(CCCC)CS(=O)(=O)c2ccc(N(C)C)cc2C(c2cccc(NC(=S)Nc3ccc(C[N+](C)(C)CCOC(=O)c4ccccc4)cc3)c2)N1 (stereo not drawn) [EXAMPLE 3558],
7.03,CCCCC1(CCCC)CS(=O)(=O)c2ccc(N(C)C)cc2C(c2cccc(NC(=S)Nc3ccc(C[N+]4(CC)CCCC4)cc3)c2)N1 (stereo not drawn) [EXAMPLE 3568],
7.15,CCCCC1(CCCC)CS(=O)(=O)c2ccc(N(C)C)cc2C(c2cccc(NC(=S)Nc3ccc(C[N+]4(Cc5ccccc5)CCCCC4)cc3)c2)N1 (stereo not drawn) [EXAMPLE 3593],
7.27,CCCCC1(CCCC)CS(=O)(=O)c2ccc(N(C)C)cc2C(c2cccc(NC(=S)Nc3ccc(C[N+]4(C)CCC(O)CC4)cc3)c2)N1 (stereo not drawn) [EXAMPLE 3599],
7.35,CCCCC1(CCCC)CS(=O)(=O)c2ccc(N(C)C)cc2C(c2cccc(NC(=S)Nc3ccc(C[N+]4(Cc5ccccc5)CCCC(O)C4)cc3)c2)N1 (stereo not drawn) [EXAMPLE 3604],
7.14,CCCCC1(CCCC)CS(=O)(=O)c2ccc(N(C)C)cc2C(c2cccc(NC(=S)Nc3ccc(C[N+]45CCC(CC4)C(=O)C5)cc3)c2)N1 (stereo not drawn) [EXAMPLE 3698],
7.20,CCCCC1(CCCC)CS(=O)(=O)c2ccc(N(C)C)cc2C(c2cccc(NC(=S)Nc3ccc(C[n+]4ccc(CCC)cc4)cc3)c2)N1 (stereo not drawn) [EXAMPLE 3711],
7.24,CCCCC1(CCCC)CS(=O)(=O)c2ccc(N(C)C)cc2C(c2cccc(NC(=S)Nc3ccc(C[n+]4ccc(C(CC)CC)cc4)cc3)c2)N1 (stereo not drawn) [EXAMPLE 3714],
7.05,CCCCC(CCCC)c1cc[n+](Cc2ccc(NC(=S)Nc3cccc(C4NC(CCCC)(CCCC)CS(=O)(=O)c5ccc(N(C)C)cc54)c3)cc2)cc1 (stereo not drawn) [EXAMPLE 3716],
7.52,CCCCC1(CCCC)CS(=O)(=O)c2ccc(N(C)C)cc2C(c2cccc(NC(=S)Nc3ccc(C[n+]4ccc(-c5ccccc5)cc4)cc3)c2)N1 (stereo not drawn) [EXAMPLE 3717],
7.16,CCCCC1(CCCC)CS(=O)(=O)c2ccc(N(C)C)cc2C(c2cccc(NC(=S)Nc3ccc(C[n+]4cccc(-c5ccccc5)c4)cc3)c2)N1 (stereo not drawn) [EXAMPLE 3724],
7.28,CCCCC1(CCCC)CS(=O)(=O)c2ccc(N(C)C)cc2C(c2cccc(NC(=S)Nc3ccc(C[n+]4cccc(Cc5ccccc5)c4)cc3)c2)N1 (stereo not drawn) [EXAMPLE 3725],
